Assay results from paper PMC6597546, “Identification of a potent benzoxaborole drug candidate for treating cryptosporidiosis” (Nature Communications, 2019).
Values joined by “and” are separate entries in the source; they are usually repeats but may differ in a detail not shown here. Equal entries are not always repeated. Where two headings read alike, the source gives them in different places.

Experiments:
[1] = tested on: C. parvum invasion of HCT-8 host cells; experiment: HCT-8 host cell invasion assay; assay type: cell-based, Cryptosporidium parvum; conditions: HCT-8 host cells, 3 h
Method: The invasion assay, DNA replication assay, asexual to sexual stage conversion, and time-kill curve assays were performed using fluorescence microscopy to enumerate parasites and host cell nuclei. Staining protocols are individually described for each assay. Unless noted otherwise, the details of image acquisition were as follows. An inverted Nikon Eclipse Ti2000 microscope with an automated stage and Perfect Focus was used with NIS-Elements Advanced Research software (Nikon, USA, version 4.30.01) to image the wells. The microscope was programmed to focus on the center of each well and then take a 3 × 3 composite image per well using a 20 × (0.45 NA) objective. Images were exported as .tiff files and parasites and host nuclei counted using a custom macro on ImageJ (National Institutes of Health, version 1.52a). Data were analyzed using Microsoft Excel and GraphPad Prism (version 6.01).
Host cell invasion was assayed by allowing C. parvum to invade host cell monolayers in the presence of compound, and enumerating parasites and host cells after just 3 h (i.e., before completion of a parasite division cycle)[38]. HCT-8 cells were grown in RPMI media supplemented with 120 U per mL penicillin and 120 μg per mL streptomycin and 10% heat inactivated fetal bovine serum (complete media) and C. parvum Iowa isolate oocysts from Bunch Grass Farms (Deary, ID) were used for infection. When cells reached a confluence of >99%, media was removed and replaced with 25 µL per well of fresh media containing twice the indicated concentrations of compounds and incubated for 1 h at 37 °C in a humidified CO2 incubator. In the meantime, oocysts were induced for excystation by first treating with 10 mM hydrochloric acid (diluted with distilled water) for 10 min at 37 °C followed by 2 mM sodium taurocholate (in phosphate buffered saline (PBS) with calcium and magnesium) for 10 min at 16 °C. Before and after each treatment, oocysts were spun down at 14,000 × g for 4.5 min and supernatant was removed. […]

Single-dose oral calf PK = assay type: in vivo, Holstein bull calves; conditions: calves, oral 5 mg per kg
Method: Single-dose oral and intravenous murine PK studies were performed by WuXi Biologics (Wuxi, China) in female CD-1 mice in compliance with animal care guidelines. […] Single-dose oral calf PK studies were performed at the University of Vermont in compliance with animal care guidelines and with approval from the University of Vermont Institutional Animal Care and Use Committee. […] Doses were squirted into the calves’ mouths during interruptions in bottle feeding. Fecal samples were collected at the indicated times by manual anal stimulation. […] Fecal AN7973 was measured by extracting AN7973 from homogenized feces with acetonitrile. For this, feces were added to 4 volumes of acetonitrile (4 mL per g), mixed by vortexing for 5 min at room temperature, and then centrifuged. […] The fecal extraction method was validated with a standard curve of compound added to control feces. […] Non-compartmental analysis of the mean concentration-time profiles was performed using Phoenix version 6.4 (Pharsight Corporation, Mountain View, CA, USA). Concentrations below the limit of quantitation were assigned values of zero for generation of mean concentrations. Predictions of multidose exposures were generated by non-parametric superposition of the single-dose PK data using Phoenix version 6.4 (Supplementary Fig. 5).

[2] = tested on: C. parvum (University of Arizona Iowa isolate); assay type: in vivo, C57BL/6 IFN-γ−/− mice
Method: Interferon gamma (IFN-γ) knockout mice were used to model acute Cryptosporidium infection. All IFN-γ knockout mouse studies were performed in compliance with animal care guidelines and were approved by the Explora BioLabs (San Diego, CA) Institutional Animal Care and Use Committee. Four-week-old female C57BL/6 IFN-γ^−/− mice with normal flora were purchased from The Jackson laboratory and acclimated for 3 days prior to infection by oral gavage with ∼10^6 C. parvum Iowa isolate oocysts (Sterling Laboratory, University of Arizona) suspended in sterile distilled water. At the indicated times following infection, mice were treated with compound vehicle alone, clofazimine (positive control), or once daily AN7973 at the indicated doses. Fecal parasite shedding was measured by isolating oocysts using sucrose gradient centrifugation. Sheather’s sucrose solution was freshly prepared by dissolving 156.25 g sucrose and 2.5 mL phenol in 100 mL water. Two sucrose solutions were prepared: (A) specific gravity of 1.103 (33% Sheather’s and 0.1% Tween 80 in PBS) and (B) specific gravity of 1.064 (20% Sheather’s and 0.1% Tween 80 in PBS). In a 2 mL microfuge tube, a gradient was prepared by laying 0.75 mL of solution A, then carefully laying 0.75 mL of solution B, slowly as to prevent mixing of the two layers. Fecal pellets were removed from storage, and homogenized by vortexing and pipetting. 0.2 mL fecal homogenate was overlaid on top of gradient in each microfuge tube. Oocysts were floated from feces by centrifugation at 1000 × g for 20 min and collected with a pipet tip from the 1.064/1.103 specific gravity interface between solutions A and B. Oocysts were rinsed once in cold PBS, pelleted by centrifugation at 15,000 × g for 10 min, and resuspended in PBS. Isolated oocysts were then stained with a fluorescein isothiocyanate-conjugated mouse anti-Cryptosporidium antibody (Bio-Rad catalog# 2402-3007 F; 0.25 µg per sample) and quantified using a Guava EasyCyte flow cytometer and CytoSoft data acquisition software (version 5.3; Guava Technologies, Inc.). Oocysts per milliliter of sample were normalized to counts per milligram of feces.

CYP3A4 = CYP3A4 (Homo sapiens, UniProt P08684); experiment: CYP450 inhibition 3A4; assay type: in vitro ADME
[3] = male, Holstein, bovine, plasma, 5 mg/kg

Sequence of CYP3A4 (P08684 whole entry): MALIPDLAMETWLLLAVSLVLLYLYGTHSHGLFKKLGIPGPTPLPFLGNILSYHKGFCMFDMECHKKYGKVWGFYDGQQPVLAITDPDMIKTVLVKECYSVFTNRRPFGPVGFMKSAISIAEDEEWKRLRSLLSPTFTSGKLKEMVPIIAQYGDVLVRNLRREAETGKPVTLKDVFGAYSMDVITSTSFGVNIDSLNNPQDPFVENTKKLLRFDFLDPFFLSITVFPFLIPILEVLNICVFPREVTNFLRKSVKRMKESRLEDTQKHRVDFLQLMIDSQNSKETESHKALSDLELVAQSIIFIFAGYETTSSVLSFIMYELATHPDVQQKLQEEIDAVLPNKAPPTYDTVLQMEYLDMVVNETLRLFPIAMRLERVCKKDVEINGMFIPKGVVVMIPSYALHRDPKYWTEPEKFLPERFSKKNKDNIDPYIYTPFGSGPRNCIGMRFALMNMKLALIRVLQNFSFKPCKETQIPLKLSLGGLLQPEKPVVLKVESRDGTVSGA

## CC1(C)OB(O)c2cc(NC(=O)c3ccc(-n4cccn4)cc3Cl)ccc21 [AN7973]
[1]
  activity in C. parvum invasion assay: no activity
Single-dose oral calf PK
  t1/2: 31.1 h
Single-dose oral calf PK; [3]
  AUC(0-inf): 190 µg·h/mL
  Cmax: 3570 ng/mL
Single-dose oral calf PK; male, Holstein, bovine, plasma, po, 5 mg/kg
  half-life: 31 h
[2]; 10 mg/kg QD from day 4, day p.i. 8
  fecal oocyst shedding, individual mice: 5.45 and 13 (2×) and 10
[2]; 10 mg/kg QD from day 4, day p.i. 14
  fecal oocyst shedding, individual mice: 11 and 15 (2×) and 21
[2]; 25 mg/kg QD from day 4, day p.i. 7
  fecal oocyst shedding, individual mice: 3 (2×) and 6 and 9
[2]; 5, 10, 25 mg per kg once daily oral, efficacy at 10 mg per kg, maximal efficacy similar to clofazimine
  efficacy in IFN-γ KO mouse: dose-dependent efficacy
[2]; mouse, in vivo
  adverse effects in IFN-γ KO mice: no adverse effects
CYP3A4
  inhibition at 10 µM: 1%
